Literature values as cited in patent US20100297147A1, “COMPOSITIONS AND METHODS FOR MODULATING TLR14 ACTIVITY” (WYETH, priority 2006, published 2010).

System: postnatal day 4 rat cerebellar granule neurons
Settings: positive control, used at 10 uM

Which “neurite outgrowth in the presence of myelin (known activity of control compound)” value does the source give for `C[C@@H](N)[C@H]1CC[C@H](C(=O)Nc2ccncc2)CC1` [Y-27632] here?
The value was “known to induce neurite outgrowth in the presence of myelin”.
